From paper PMC10507666, “Trifluoromethylthiolation of Tryptophan and Tyrosine Derivatives: A Tool for Enhancing the Local Hydrophobicity of Peptides” (The Journal of Organic Chemistry, 2023)
Structures can show the parent of a compound that is named as a salt. Blank lines part the entries; values can stand above or below the compound they belong to. Residues, ends and D or L forms follow the SMILES beside them.

Experiments:
[1] = RP-HPLC retention time of EM-1 analogues (gradient); assay type: physicochemical; conditions: RP-HPLC analysis, gradient 20% → 60% MeCN + 0.1% TFA in H2O + 0.1% TFA; retention time used as support for enhanced local hydrophobicity
[2] = Chromatographic hydrophobicity index (CHI/HI, ϕ0) determination by isocratic RP-HPLC at pH 7; assay type: physicochemical; conditions: for Hydrophobicity index (HI): chromatographic, ϕ0 = –log k'w/S, pH 7, 50 mM ammonium acetate in mQ H2O / MeCN (6–22%), linear regression of four log k' values per peptide, UV 254 nm, Figure 1A; for Hydrophobicity index (HI) / k' (retention factor) / log(k'): isocratic RP-HPLC; for k' (retention factor) / log(k'): pH 7, UV 254 nm; for intercept log k'w at MeCN% = 0: linear regression of log k' versus MeCN content, pH 7, 50 mM ammonium acetate, Figure S5; for ΔHI (HI(CF3S)AA – HIAA): shift versus non-fluorinated tripeptide counterpart, chromatographic HI at pH 7
Excerpt: The hydrophobicity index (HI) shift ΔHI (HI(CF3S)AA – HIAA) is an assessment of the contribution of the CF3S substituent to the increase in local hydrophobicity. This method, developed by Valkó et al.,[27] has already been successfully applied to measure the increased local hydrophobicity of peptides containing fluorinated AAs.[6b],[28] This short peptide sequence was chosen to prevent the formation of secondary structures that could affect hydrophobicity (see the Supporting Information, Chapter 6, for details). […] It is noteworthy that the replacement of the Tyr residue with its CF3S-Tyr analogue provides a higher local enhancement of the hydrophobicity (ΔHI = HI(CF3S)Tyr – HITyrca. 12 units) compared to the Trp series (ΔHI = HI(CF3S)Trp – HITrpca. 8 units).
6. Hydrophobicity index determination
The peptides were prepared according to the SPPS general procedure.
The chromatographic hydrophobicity index (CHI) was determined according to the protocols described previously. 17 Experiments were performed at pH 7 using 50 mM ammonium acetate in mQ H2O and MeCN as mobile phase. Peptides 9-12 were dissolved in 50 mM ammonium acetate before injection (25 µL injection volume). Retention factors (k') were determined at λ = 254 nm at various MeCN concentrations ranging from 6–22% (k' = (tR–t0) / […]). Then, log k' was expressed as a function of MeCN content and linear regression was applied to four values per peptide. The intercept log k'w at MeCN% = 0 and the slopes S were extracted from the linear fit for each peptide (correlation coefficient: R2 > 0.99). The isocratic hydrophobicity index (CHI) was calcd for each peptide using the following equation: […]
RP-HPLC analysis: >95% purity; tR = 10.42 min (7% MeCN in ammonium acetate buffer (pH […]
(1 picture or pasted object on this page, not shown here)
Table of retention times (tR), dead times (t0), and calculated log k' and CHI for peptides 9-12 at pH 7: […]
Peptide 12 (22% MeCN in 50 mM ammonium acetate buffer, pH 7, 1 mL/min):
Chromatographic hydrophobicity index C HI (pH 7) of peptides 9-12 […]
Figure S5: RP-HPLC determination of the chromatographic hydrophobicity index CHI for peptides 9-12 at pH 7 by linear regression of log k' values as a function of MeCN content.

[3] = CF3S-tyramine versus tyramine, from pKa values in H2O/D2O 90:10
Excerpt: Figure 1 Biophysical property evaluation.
Finally, we assessed the influence of the CF3S group on the acidity of the vicinal phenol function in a simplified tyramine model carrying an ortho CF3S.

[4] = 6% MeCN in 50 mM ammonium acetate buffer
[5] = 7% MeCN in 50 mM ammonium acetate buffer
[6] = 8% MeCN in 50 mM ammonium acetate buffer
[7] = 9% MeCN in 50 mM ammonium acetate buffer
[8] = 12% MeCN in 50 mM ammonium acetate buffer
[9] = 13% MeCN in 50 mM ammonium acetate buffer
[10] = 14% MeCN in 50 mM ammonium acetate buffer
[11] = 15% MeCN in 50 mM ammonium acetate buffer
[12] = 17% MeCN in 50 mM ammonium acetate buffer
[13] = 18% MeCN in 50 mM ammonium acetate buffer
[14] = 19% MeCN in 50 mM ammonium acetate buffer
[15] = 20% MeCN in 50 mM ammonium acetate buffer
[16] = 21% MeCN in 50 mM ammonium acetate buffer
[17] = 22% MeCN in 50 mM ammonium acetate buffer

Compound: NC(=O)[C@H](Cc1ccccc1)NC(=O)[C@H](Cc1c(SC(F)(F)F)[nH]c2ccccc12)NC(=O)[C@@H]1CCCN1C(=O)[C@@H](N)Cc1ccc(O)cc1 [(CF3S)Trp-EM-1]
tR [1]: 10.9 min

Compound: NC(=O)[C@H](Cc1ccccc1)NC(=O)[C@H](Cc1c[nH]c2ccccc12)NC(=O)[C@@H]1CCCN1C(=O)[C@@H](N)Cc1ccc(O)c(SC(F)(F)F)c1 [(CF3S)Tyr-EM-1]
tR [1]: 11.6 min

Compound: NC(=O)[C@H](Cc1ccccc1)NC(=O)[C@H](Cc1c[nH]c2ccccc12)NC(=O)[C@@H]1CCCN1C(=O)[C@@H](N)Cc1ccc(O)cc1 [EM-1, endomorphin-1, reference compound]
tR [1]: 8.1 min

Hydrophobicity index (HI) [2]: 11.37 | k' (retention factor) [2, 4]: 6.432 | log(k') [2, 4]: 0.808 | k' (retention factor) [2, 5]: 4.433 | log(k') [2, 5]: 0.647 | k' (retention factor) [2, 6]: 3.166 | log(k') [2, 6]: 0.501 | k' (retention factor) [2, 7]: 2.284 | log(k') [2, 7]: 0.359 | intercept log k'w at MeCN% = 0 [2]: 1.6998
Compound: CC(C)C[C@H](NC(=O)[C@H](Cc1ccc(O)cc1)NC(=O)[C@H](C)N)C(=O)O [compound 9, TFA·H2N-L-Ala-L-Tyr-L-Leu-OH] (H-Ala-Tyr-Leu-OH)

Hydrophobicity index (HI) [2]: 19.13 | k' (retention factor) [2, 8]: 7.397 | log(k') [2, 8]: 0.869 | k' (retention factor) [2, 9]: 5.507 | log(k') [2, 9]: 0.741 | k' (retention factor) [2, 10]: 4.188 | log(k') [2, 10]: 0.622 | k' (retention factor) [2, 11]: 3.191 | log(k') [2, 11]: 0.504 | intercept log k'w at MeCN% = 0 [2]: 2.3234
Compound: CC(C)C[C@H](NC(=O)[C@H](Cc1c[nH]c2ccccc12)NC(=O)[C@H](C)N)C(=O)O [compound 10, TFA·H2N-Ala-Trp-Leu-OH] (H-Ala-Trp-Leu-OH)

Hydrophobicity index (HI) [2]: 23.27 | k' (retention factor) [2, 11]: 9.198 | log(k') [2, 11]: 0.964 | k' (retention factor) [2, 12]: 5.352 | log(k') [2, 12]: 0.729 | k' (retention factor) [2, 13]: 4.091 | log(k') [2, 13]: 0.612 | k' (retention factor) [2, 14]: 3.149 | log(k') [2, 14]: 0.498 | intercept log k'w at MeCN% = 0 [2]: 2.7107 | ΔHI (HI(CF3S)AA – HIAA) [2]: ca. 12 units
Compound: CC(C)C[C@H](NC(=O)[C@H](Cc1ccc(O)c(SC(F)(F)F)c1)NC(=O)[C@H](C)N)C(=O)O [compound 11, TFA·H2N-Ala-(CF3S)Tyr-Leu-OH]

Hydrophobicity index (HI) [2]: 27.15 | k' (retention factor) [2, 14]: 9.031 | log(k') [2, 14]: 0.956 | k' (retention factor) [2, 15]: 6.844 | log(k') [2, 15]: 0.835 | k' (retention factor) [2, 16]: 5.211 | log(k') [2, 16]: 0.717 | k' (retention factor) [2, 17]: 4.025 | log(k') [2, 17]: 0.605 | intercept log k'w at MeCN% = 0 [2]: 3.1793 | ΔHI (HI(CF3S)AA – HIAA) [2]: ca. 8 units
Compound: CC(C)C[C@H](NC(=O)[C@H](Cc1c(SC(F)(F)F)[nH]c2ccccc12)NC(=O)[C@H](C)N)C(=O)O [compound 12, TFA·H2N-Ala-(CF3S)Trp-Leu-OH]

increase of the acidity of the vicinal hydroxyl group [3]: 100 fold
Compound: CF3S-tyramine [6e]
